According to US10858368B2, “Modulators of the 5-hydroxytryptamine receptor 7 and their method of use” (Temple University—Of The Commonwealth System of Higher …, priority 2016, dated 2020):

target: 5HT7 receptors (Homo sapiens (Human), UniProt P34969); assay: Radiolabel Binding Studies for Serotonin 5-HT7 Receptors, Method 2 ([3H]-5HT competition; Ki, and percent inhibition at 10 μM); conditions: single concentration 10 uM; inhibition of radioligand binding to 5HT7 receptors; read-out: 5-HT7 % inhib @ 10 uM
Method: A solution of the compound of the disclosure to be tested is prepared as a 1-mg/ml stock in Assay Buffer or DMSO according to its solubility. A similar stock of the reference compound chlorpromazine is also prepared as a positive control. Eleven dilutions (5× assay concentration) of the compound of the disclosure and chlorpromazine are prepared in the Assay Buffer by serial dilution to yield final corresponding assay concentrations ranging from 10 pM to 10 μM.
A stock concentration of 5 nM [^3H]-5-Hydroxytryptamine ([^3H]-5HT) is prepared in 50 mM Tris-HCl, 10 mM MgCl2, 1 mM EDTA, pH 7.4 (Assay Buffer). Aliquots (50 μl) of radioligand are dispensed into the wells of a 96-well plate containing 100 al of Assay Buffer. Duplicate 50-μl aliquots of the compound of the disclosure test and chlorpromazine positive control reference compound serial dilutions are added.
Membrane fractions of cells expressing recombinant 5HT7 receptors (50 μL) are dispensed into each well. The membranes are prepared from stably transfected cell lines expressing 5HT7 receptors cultured on 10-cm plates by harvesting PBS-rinsed monolayers, resuspending and lysing in chilled, hypotonic 50 mM Tris-HCl, pH 7.4, centrifuging at 20,000×g, decanting the supernatant and storing at −80° C.; the membrane preparations are resuspended in 3 ml of chilled Assay Buffer and homogenized by several passages through a 26 gauge needle before using in the assay.
The 250-μl reactions are incubated at room temperature for 1.5 hours, then harvested by rapid filtration onto 0.3% polyethyleneimine-treated, 96-well filter mats using a 96-well Filtermate harvester. Four rapid 500-μl washes are performed with chilled Assay Buffer to reduce non-specific binding. The filter mats are dried, then scintillant is added to the filters and the radioactivity retained on the filters is counted in a Microbeta scintillation counter.
Raw data (dpm) representing total radioligand binding (i.e., specific+non-specific binding) are plotted as a function of the logarithm of the molar concentration of the competitor (i.e., test or reference compound). Non-linear regression of the normalized (i.e., percent radioligand binding compared to that observed in the absence of test or reference compound) raw data is performed in Prism 4.0 (GraphPad Software) using the built-in three parameter logistic model describing ligand competition binding to radioligand-labeled sites: y=bottom+[(top−bottom)/(1+10×−log IC50)] where bottom equals the residual radioligand binding measured in the presence of 10 μM reference compound (i.e., non-specific binding) and top equals the total radioligand binding observed in the absence of competitor. The log IC50 (i.e., the log of the ligand concentration that reduces radioligand binding by 50%) is thus estimated from the data and used to obtain the Ki by applying the Cheng-Prusoff approximation: Ki=IC50/(1+[ligand]/KD) where [ligand] equals the assay radioligand concentration and KD equals the affinity constant of the radioligand for the target receptor.
Compounds of the disclosure are also screened at a single concentration of 10 μM using the same method described for the Radiolabel Binding Studies for Serotonin 5HT7 receptors to determine the percent inhibition of [^3H]-5HT binding.

5HT7 receptors, sequence (P34969 whole entry): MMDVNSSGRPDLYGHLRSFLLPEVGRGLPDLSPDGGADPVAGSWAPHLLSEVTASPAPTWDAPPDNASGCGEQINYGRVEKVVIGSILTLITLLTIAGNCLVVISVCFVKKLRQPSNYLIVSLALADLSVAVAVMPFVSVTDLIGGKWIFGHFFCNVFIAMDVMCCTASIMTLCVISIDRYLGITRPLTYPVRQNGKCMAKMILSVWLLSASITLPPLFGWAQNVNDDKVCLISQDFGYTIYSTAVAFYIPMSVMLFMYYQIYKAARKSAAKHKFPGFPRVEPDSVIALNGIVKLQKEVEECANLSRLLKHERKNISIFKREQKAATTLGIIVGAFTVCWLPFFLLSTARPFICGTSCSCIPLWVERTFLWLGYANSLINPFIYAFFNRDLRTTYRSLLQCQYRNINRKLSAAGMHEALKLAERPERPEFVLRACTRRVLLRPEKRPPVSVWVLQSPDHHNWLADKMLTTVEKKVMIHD

Structure (SMILES) | inhibition at 10 µM [%]
Cc1ccc(N2CCN(CCC3CC4(CCN(Cc5ccccc5)CC4)C(=O)O3)CC2)cc1 (stereo not shown) [Entry 1] | 96.5
Cc1ccc(N2CCN(CCC3CC4(CCNCC4)C(=O)O3)CC2)cc1 (stereo not shown) [Entry 2] | 88.8
Cc1nc2cccc(N3CCN(CCC4CC5(CCN(S(C)(=O)=O)CC5)C(=O)O4)CC3)c2[nH]1 (stereo not shown) [Entry 8] | 100

Continued, values first:

inhibition at 10 µM [%] | Structure (SMILES)
90 | COC(=O)N1CCC2(CC1)CC(CCN1CCN(c3ccc(C)cc3)CC1)OC2=O (stereo not shown) [Entry 3]
88.5 | CC(=O)N1CCC2(CC1)CC(CCN1CCN(c3ccc(C)cc3)CC1)OC2=O (stereo not shown) [Entry 4]
91.6 | CNC(=O)N1CCC2(CC1)CC(CCN1CCN(c3ccc(C)cc3)CC1)OC2=O (stereo not shown) [Entry 5]
90.5 | Cc1ccc(N2CCN(CCC3CC4(CCN(S(C)(=O)=O)CC4)C(=O)O3)CC2)cc1 (stereo not shown) [Entry 6]
